From patent publication US20250205158A1, “BIODEGRADABLE LIPIDS AND FORMULATIONS FOR DELIVERY OF MRNA” (Massachusetts Institute of Technology, priority 2023, published 2025)

Columns and labels:
mice [1] = assay: Germinal center response after HA mRNA LNP prime dose; format: in vivo, BALB/cJ mice; conditions: LDLN 8 days following a prime dose
mice [2] = assay: IFN-γ ELISpot and supernatant cytokines of peptide-stimulated splenocytes after HA mRNA vaccination; format: in vivo, BALB/cJ and C57B1/6J mice
Experimental: Further experiments to evaluate the dose-sparing potential of AMG1541 were performed for influenza vaccination.^34,35 The immunogenicity of AMG1541 was compared to the clinical benchmark SM-102 by formulating each into LNPs containing hemagglutinin (HA) (A/Tasmania/503/2020 H3N2) mRNA. BALB/cJ mice were vaccinated with […] of these mRNA LNPs and the quality of humoral and cellular immunity following vaccination was evaluated. Enhancing each component of immunity contributes to improving vaccine protection—humoral immunity provides protection against initial infection while cellular immunity improves the clearance of breakthrough infections. […] Male and female mice vaccinated with AMG1541 had 15.8- and 6.8-fold higher endpoint titers, respectively (FIG. 13C). […] Serum cytokines were examined 6 hours after the boost dose to determine whether the enhanced immunogenicity of AMG1541 also led to increased systemic inflammation (FIGS. 20A-20C). […]
IFN-γ ELISpot. […] Cells were then pelleted, resuspended in PBS+1% BSA, and counted using a countess 3 automated cell counter (ThermoFisher). […]
Luminex. […] The supernatants from the stimulated splenocytes used for the ELISpot assay were analyzed using Eve Technologies' Mouse High Sensitivity 18-Plex Discovery Assay® (MilliporeSigma, Burlington, Massachusetts, USA) according to the manufacturer's protocol. […]

mice [3] = assay: hEPO mRNA LNP protein production after intravenous administration; format: in vivo
[4] = 31P NMR membrane fusion study; format: physicochemical; conditions: acidic pH
Experimental: Structural features of AMG lipids that facilitate mRNA delivery. The factors contributing to lipid potency were evaluated. The ionization properties of AMG1541 LNPs were investigated using a previously established 6-(p-toluidino)-2-napthalenesulfonic acid (TNS) assay.^22 The pKa of AMG LNPs showing higher in vivo mRNA transfection than SM-102 ranged between pH 6.4-6.7. […] In addition to endosomal buffering, it is hypothesized that the protonated ionizable lipids within the acidic endosome bind with anionic phospholipids within the endosomal membrane, destabilizing the membrane's bilayer and promoting endosomal pore formation.^17,52 The membrane fusion properties of the ionizable lipids was evaluated via ^31P NMR. When bilayer forming DPPS vesicles were mixed with equimolar AMG lipid under acidic conditions, a bilayer to hexagonal phase transition was observed, indicating their membrane-destabilizing nature (FIG. 15D).

[5] = system: influenza A/Tasmania/503/2020 virus; assay: Hemagglutination inhibition (HAI) assay, neutralizing antibody titers after HA mRNA vaccination; format: in vivo, BALB/cJ mice
Experimental: To test this, a dose-response vaccination experiment ranging from […] was performed in female BALB/cJ mice. Neutralizing antibody titers were evaluated using the hemagglutination inhibition (HAI) assay. HAI titers are strongly correlated with vaccine protection and the assay is an FDA approved method for testing influenza vaccine efficacy^38,39 In agreement with the binding antibody titers, higher neutralizing […] were measured across all three tested doses: SM-102 only gave detectable neutralizing immunity at a 1 μg dose, while AMG1541 gave neutralizing immunity with as little was 10 ng of mRNA (FIG. 13H). Not only was AMG1541 able to generate neutralizing immunity at a very low dose, the binding and neutralizing antibody titers were equivalent in mice vaccinated with AMG1541 at a […] as those with SM-102 at a […] (FIG. 13H).
HAI Assay. HAI assays were performed by IBT bioservices. Viral titers were standardized by defining one HA unit as the amount of inactivated influenza A/Tasmania/503/2020 virus required to completely hemagglutinate an equal volume of 1% turkey red blood cells (TRBCs) (Lampire). Serum was heat inactivated at 56° C. then receptor destroying enzyme (RDE) (DENKA) was added to the serum and incubated at 37° C. for 20 hrs. RDE was then deactivated at 56° C. for 60 mins. Serum samples were then serially diluted in DPBS and 25 μL of diluted serum was added to a 96-well V bottom plate. Subsequently, four HA units of inactivated virus in 25 μL of DPBS were added to the diluted serum and incubated for 30 mins. at RT. 50 μL of a 1% (4×10^7 cells/mL) solution of turkey red blood cells (Lampire) was then added to the serum and virus mixture.

[6] = intravenous delivery of mRNA to the liver (FIG. 18), EPO in blood 6 hours

Structure (SMILES): CCCCCC/C=C\CCCC(=O)OCC(O)CN1CCN(CC(O)COC(=O)CCC/C=C\CCCCCC)CCN(CC(O)COC(=O)CCC/C=C\CCCCCC)CCN(CC(O)COC(=O)CCC/C=C\CCCCCC)CCN(CC(O)COC(=O)CCC/C=C\CCCCCC)CCN(CC(O)COC(=O)CCC/C=C\CCCCCC)CC1 (stereo not shown) [AMG1541]
- fold higher Ag+ GC B cells than SM-102 treated mice (mice [1]): 6.0 fold
- fold more Fas+GL7+ GC B cells than SM-102 treated mice (mice [1]): 4.8 fold
- cytokines in media from splenocytes stimulated with MHC-binding peptides (mice [2]; BALB/cJ mice, HA mRNA, dose=1 μg): significant upregulation of IL-4, and IL-5 in both male and female mice and IL-10 in female mice
- fold more Spot Forming Units (SFU) relative to SM-102 (mice [2]; IFN-γ ELISpot, MHC-I stimulated splenocytes, female C57B1/6J mice): 6.6 fold
- hEPO expression profile in the liver, comparable to MD-1 (mice [3]; administered intravenously): excellent hEPO expression profile
- hEPO protein expression in liver (mice [3]; dose range of 0.25-1 mg/kg): consistent levels of protein expression
- fold higher protein expression than Lipid 5 (mice [3]; hEPO mRNA, 1 mg/kg dose): 3-4 fold
- hEPO protein expression (mice [3]; higher doses beyond 2 mg/kg): reduced protein expression
- expression relative to cKK-E12 (mice [3]; intravenous delivery of mRNA to the liver (FIG. 18)): comparable expression to cKK-E12
- fold higher expression than LP-01 (mice [3]; [6]): ~5 fold
- fold higher expression than Lipid 5 (mice [3]; [6]): ~3 fold
- hEPO production in liver, repeat dosing (mice [3]; repeat dosing over 3 weeks at 0.05-1 mg/kg): consistent hEPO production
- 31P NMR phase behaviour [4]: bilayer membrane to hexagonal HII transformation
- fold higher neutralizing titers than SM-102 ([5]; equivalent vaccine dose): 13 fold
- lowest mRNA dose giving neutralizing immunity ([5]; female BALB/cJ mice, dose-response vaccination): 10 ng
- fold lower dose giving similar protective immunity to SM-102 ([5]; mouse, in vivo): 100 fold
